# Measurements from PMC9413201, “Covalent Proteomimetic Inhibitor of the Bacterial FtsQB Divisome Complex” (Journal of the American Chemical Society, 2022).
# Numbered stars: 1 amine (or outer) side, 2 acyl side, 3 side chain; on linkers, the order of the positions; unused ones are H or OH. Bridge positions count the residues as written; N and C are the ends. Square brackets hold non-standard residues; d marks the D form. Peptide text beside a SMILES is read from it. * marks the point of attachment. X1 = O=C([C@H](CCCCCC=[*:3])N[*:1])[*:2]; Nle = CCCC[C@H](N)C(=O)O; BrAc = O=C(CBr)*
# Key:
# [1] = Toxicity test in uninfected zebrafish larvae; settings: 15 zebrafish per condition, L8S1 3.125 µM, 17fα 70 µM, n = 1 replicate
# FtsQ(50–276) = FtsQ(50–276) (Escherichia coli, UniProt P06136); assay: LC/MS analysis of modified FtsQ(50–276); type: biochemical, E. coli; set-up: pET16b FtsQ(50˗276), a His6 fusion; made in house; host or cells: Escherichia coli BL21 DE3; settings: HPLC/MS, deconvolution; expected for reaction with 1 equiv ΔMW = 2122 g/mol; 37 °C, NH4HCO3 buffer pH 7.6
# Sequence of FtsQ(50–276) (P06136 50-276): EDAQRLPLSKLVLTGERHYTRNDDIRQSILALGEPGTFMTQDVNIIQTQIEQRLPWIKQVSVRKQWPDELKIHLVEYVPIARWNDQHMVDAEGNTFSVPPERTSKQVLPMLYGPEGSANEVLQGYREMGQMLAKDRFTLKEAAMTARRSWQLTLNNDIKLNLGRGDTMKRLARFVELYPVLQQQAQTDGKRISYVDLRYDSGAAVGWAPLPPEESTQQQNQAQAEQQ
# Procedure: 1.6 LC/MS-analysis of modified FtsQ(50˗276)
# To determine the reactivity of 17fα, FtsQ(50˗276) was diluted to a concentration of 100 μM in 20 mM NH4HCO3 buffer (pH 7.6, 150 mM NaCl). The peptide 17fα was diluted to a concentration of 250 μM in the same buffer.
# Equal volumes of both solutions were mixed and incubated at 37 °C for the given time period (1 h or 3 h). The reaction was quenched by 4-fold dilution in ACN/H2O (1:1) + 0.1 % TFA.
# 20 μL of the resulting solution were injected and analysed by analytical reverse-phase HPLC (1260 Infinity II, Agilent Technology; flow rate of 0.3 mL·min-1, A: water with 0.1% FA, B: 80% iPrOH, 10% ACN, 10% H2O with 0.1% FA; AdvanceBio RP-mAB C4 column, 2.1×50 mm, 3.5 µm particle size) using a 10 min gradient (20-80% B) coupled to a mass spectrometer (Infinity Lab LC/MSD XT, Agilent Technology) using API-ES (MSD signal settings: Polarity: Positive; scan mass range: 500-3000; Fragmentor 70). Analytical HPLC chromatograms at 210 nm and MS spectra, masses and m/z ratios are shown in the appendix – analytics part. […]
# (§1) Morphology assays were executed to assess the physiological change of E.coli cells upon exposure to different peptides. All steps in this protocol were performed under sterile conditions. For each assay, 20 mL of fresh MOPS medium was prepared (40 mM MOPS, 4 mM tricine, 0.01 mM FeSO-4, 9.5 mM NH4Cl, 0.276 mM K2SO4, 0.5
# E. coli 87 = type: cell-based, Escherichia coli
# Procedure: 1.11 Checkerboard synergy assay
# As described by Hsieh et al.,6 two-fold dilution series of cationic peptides were made in polypropylene microtiter plates (Ratiolab, L6018123, Dreieich, Germany) in 50 μL volume of MOPS medium/2% DMSO. Primary clinical isolates of Escherichia coli 87 were provided by Dr. Karin van Dijk, Amsterdam UMC. In a similar manner, two-fold dilution series of 17fα were made in polystyrene microtiter plates (Costar, REF3779, Corning NY, United States) in 70 μL volume of MOPS medium. Then, 50 μL of the 17fα series was transferred to the L8S1 containing polypropylene plate, resulting in a checkerboard titration of a L8S1 on the vertical axis and an 17fα on the horizontal axis. Mid-log phase cultures were diluted to OD600 0.1 and 10 μL culture was added to each well of the microtiter plate, resulting in a total volume of 110 μL and an OD600 of ~0.01 ([…]), and the OD600 was measured every 15 min for 12 h using the microplate reader. First, the MIC values of the compounds alone were determined as described previously. Similarly, the MIC values of the compound combination were determined (the fractional inhibitory concentrations (FIC))6. With these MIC values and FIC values, the fractional inhibitory concentration index (FICindex) was calculated as follows:
# FIC = FICantibiotic + FICpeptide (1) […]
# [2] = tested on: E. coli lptD4213 (imp) cells; assay: Microscopy and morphology assay (cell length); type: cell-based; settings: 17fα 100 μM
# Procedure: 1.8 Microscopy and morphology assay
# as §1, with “0.5 […]” for “0.5”
# The next day, the overnight culture […]
# was diluted to an OD600 of 0.1. […]
# min, after which the supernatant was discarded.
# The frozen samples were thawed and 3 μL of […]
# morphology of the cells was investigated. […]
# accessed on February 2020).
# The FtsQ(50˗276) stock solution was diluted to
# NH4HCO3 (pH 7.6), 150 mM NaCl).
# The gel was placed in the container
# Colloidal Coomassie staining solution […]
# was washed 3x for 30 min with water.
# The gel pieces were washed with 200 μL water by vortex mixing for 30 s. Then the water was discarded. The gel pieces were then washed with […]
# discarded and the procedure repeated once.
# The supernatants were discarded and 200 μL of 100 %
# ACN added, mixed and incubated for 30 s. […] They were then
smiles,measurement,setting,value
CCCC[C@@H]1NC(=O)[C@H](CO)NC(=O)[C@H](CC(C)C)NC(=O)[C@H](CCC(=O)O)NC(=O)[C@H](CC(N)=O)NC(=O)[C@@H](NC(=O)[C@H](C)NC(C)=O)CCCCCC=CCCCCC[C@@H](C(=O)N[C@@H](CCCCNC(=O)CBr)C(=O)N[C@@H](Cc2ccccc2)C(=O)N[C@@H](Cc2ccc(O)cc2)C(=O)N[C@@H](CCCNC(=N)N)C(=O)N[C@@H](CC(C)C)C(N)=O)NC(=O)CNC(=O)[C@@H]2CCCN2C(=O)[C@H](CCCNC(=N)N)NC(=O)[C@H]([C@@H](C)O)NC1=O [17fα] (Ac-A[X1]NELS[Nle]TRPG[X1]K(BrAc)FYRL-NH2; staple 2-12),"Surviving zebrafish, Day 1",[1],15
same,"Surviving zebrafish, Day 2",[1],15
same,ΔMW of FtsQ(50–276) after treatment (obtained mass difference),FtsQ(50–276),2124 g/mol
same,FICindex (fractional inhibitory concentration index),"E. coli 87; 17fα in combination with L8S1, checkerboard synergy assay, OD600 after 12 h, MIC = 90% growth inhibition, from averages of MICs (L8S1 n = 3, 17fα n = 5), ≤ 0.5 synergistic",0.33
same,inhibitor concentration required for growth inhibition,"E. coli 87; clinical multidrug-resistant E. coli 87, MOPS medium, OD600",> 100 µM
same,cell length median (1h),[2]; 1 h,4.7 μm
same,cell length mean (1h),"[2]; 1 h, phase contrast microscopy, ImageJ/ObjectJ",5.3 μm
same,cell length mean (6h),[2]; 6 h,12.4 μm
same,cell length median (6h),[2]; 6 h,11.3 μm
